# Measured values published in paper PMC10924921, “Mi-2β promotes immune evasion in melanoma by activating EZH2 methylation” (Nature Communications, 2024).
# Legend:
# [1] = system: melanoma; conditions: cited from earlier work
# [2] = system: PC3 prostate cancer cells; parameters: method as in Shubhada Sharma, et al., Biochemistry 2013; conditions: ref Shubhada Sharma, et al., Biochemistry 2013; read-out: IC50, cytotoxicity; cited from earlier work
# [3] = system: BRafV600E/Ptennull melanoma cells with or without Mi-2β; test: CCK-8 proliferation after Braf inhibitor; assay type: cell-based, mouse; conditions: 10 μM, 24 h
# Experimental: To test whether Mi-2β deficiency affects the sensitivity of tumor cells to Braf inhibitors, melanoma cells were isolated from Tyr::CreER;BRaf^CA;Pten^lox/lox and Tyr::CreER;BRaf^CA;Pten^lox/lox; Mi-2β^lox/lox mice and a cell proliferation assay was performed. BRAF mutation and Mi-2β-depleted melanoma cells or BRAF mutation melanoma cells (5 × 10^3 cells/100 μl) were cultured with 10 μM PLX4032 (Selleck, China) for 24 h and cell proliferation of melanoma cells were determined using the CCK-8 assay.
# Supplementary Figure 2. […] Scale bar=200 µm. b Tumor-infiltrating lymphocytes were assayed by flow cytometry. c Treg cells within CD45+ T cells in TILs were assayed and quantified by flow cytometry.
# (n=5). d Melanomas isolated from BRafV600E/Ptennull mice and BRafV600E/Ptennull /Mi-2βnull mice were processed for immunohistochemistry staining to detect the number of CD8+ T cells. […] Melanoma cells isolated from Tyr::CreER;BRafCA;Ptenlox/lox and Tyr::CreER;BRafCA;Ptenlox/lox;Mi-2βlox/lox mice were treated with PLX4032 (10μM) for 24 hours and cell proliferation was determined by CCK-8 assay (n=6). c, e, f: Values represent mean ± SD. […]
# [4] = biological target: recombinant purified human Mi-2β protein (Homo sapiens, UniProt Q14839); test: FRET-based nucleosome repositioning assay (EpiDyne-FRET); conditions: read-out: apparent ATP Km; ATP titration 0.1 to 300 µM, 12.5 nM Mi-2β, 15 minutes
# Chain of recombinant purified human Mi-2β protein (Q14839 whole entry): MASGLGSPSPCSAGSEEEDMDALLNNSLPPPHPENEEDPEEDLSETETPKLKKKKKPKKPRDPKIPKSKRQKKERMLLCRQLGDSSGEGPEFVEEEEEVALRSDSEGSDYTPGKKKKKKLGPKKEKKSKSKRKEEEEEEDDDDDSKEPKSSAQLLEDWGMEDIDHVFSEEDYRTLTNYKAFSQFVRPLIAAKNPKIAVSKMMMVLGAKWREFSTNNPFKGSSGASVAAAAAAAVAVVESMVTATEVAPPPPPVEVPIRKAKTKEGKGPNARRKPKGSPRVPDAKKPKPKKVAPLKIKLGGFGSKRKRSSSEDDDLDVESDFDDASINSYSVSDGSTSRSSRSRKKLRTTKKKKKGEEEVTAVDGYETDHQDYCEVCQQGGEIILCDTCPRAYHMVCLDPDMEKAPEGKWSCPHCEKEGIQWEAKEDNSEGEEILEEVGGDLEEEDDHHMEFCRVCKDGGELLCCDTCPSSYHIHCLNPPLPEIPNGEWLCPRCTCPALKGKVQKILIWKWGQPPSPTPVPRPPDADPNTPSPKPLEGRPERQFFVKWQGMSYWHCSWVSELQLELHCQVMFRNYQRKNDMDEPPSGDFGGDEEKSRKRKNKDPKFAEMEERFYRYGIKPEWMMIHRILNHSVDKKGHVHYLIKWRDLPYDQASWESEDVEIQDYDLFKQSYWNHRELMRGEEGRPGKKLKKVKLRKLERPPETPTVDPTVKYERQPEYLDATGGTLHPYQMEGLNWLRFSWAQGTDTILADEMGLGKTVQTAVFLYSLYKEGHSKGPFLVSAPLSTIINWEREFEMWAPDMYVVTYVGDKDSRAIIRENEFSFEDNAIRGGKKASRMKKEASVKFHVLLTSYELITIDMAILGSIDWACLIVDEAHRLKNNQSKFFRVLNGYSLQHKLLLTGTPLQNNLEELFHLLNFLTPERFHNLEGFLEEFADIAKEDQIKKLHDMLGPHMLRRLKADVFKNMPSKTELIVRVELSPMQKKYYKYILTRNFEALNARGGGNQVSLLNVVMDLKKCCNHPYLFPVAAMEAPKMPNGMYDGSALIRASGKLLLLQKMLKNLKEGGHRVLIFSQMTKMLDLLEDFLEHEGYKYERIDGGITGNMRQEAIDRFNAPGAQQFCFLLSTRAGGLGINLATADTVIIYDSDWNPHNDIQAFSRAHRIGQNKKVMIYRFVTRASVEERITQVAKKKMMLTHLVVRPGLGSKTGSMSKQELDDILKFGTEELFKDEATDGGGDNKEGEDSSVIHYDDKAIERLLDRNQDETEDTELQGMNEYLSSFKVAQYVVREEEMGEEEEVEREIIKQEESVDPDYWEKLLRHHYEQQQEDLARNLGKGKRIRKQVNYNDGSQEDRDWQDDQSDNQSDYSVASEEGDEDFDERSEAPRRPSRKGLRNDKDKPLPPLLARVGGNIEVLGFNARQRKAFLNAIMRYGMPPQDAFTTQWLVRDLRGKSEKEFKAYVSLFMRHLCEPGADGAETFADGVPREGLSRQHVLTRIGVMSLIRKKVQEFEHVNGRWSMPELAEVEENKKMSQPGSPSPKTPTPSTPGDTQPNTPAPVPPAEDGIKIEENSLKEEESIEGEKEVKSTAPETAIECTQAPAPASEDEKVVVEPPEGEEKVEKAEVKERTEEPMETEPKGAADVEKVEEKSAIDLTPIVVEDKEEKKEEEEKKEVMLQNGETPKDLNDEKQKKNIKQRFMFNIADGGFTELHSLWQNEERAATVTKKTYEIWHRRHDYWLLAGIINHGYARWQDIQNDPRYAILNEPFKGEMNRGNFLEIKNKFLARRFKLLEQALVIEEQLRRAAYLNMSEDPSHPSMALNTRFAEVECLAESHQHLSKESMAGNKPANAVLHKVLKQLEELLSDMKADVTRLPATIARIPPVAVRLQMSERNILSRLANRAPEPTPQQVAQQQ
molecule,measurement,setting,value
pembrolizumab: anti-PD-1 antibody,melanoma patients that respond,[1],33%
CC(=O)O[C@H]1C(=O)[C@@]2(C)[C@H]([C@H](OC(=O)c3ccccc3)[C@]3(O)C[C@H](OC(=O)[C@H](O)[C@@H](NC(=O)c4ccccc4)c4ccccc4)C(C)=C1C3(C)C)[C@]1(OC(C)=O)CO[C@@H]1C[C@@H]2O [paclitaxel],IC50,[2],1.41 nM
ipilimumab: anti-CTLA-4 antibody,melanoma patients that respond,[1],20%
CCCS(=O)(=O)Nc1ccc(F)c(C(=O)c2c[nH]c3ncc(-c4ccc(Cl)cc4)cc23)c1F [PLX4032],cell survival in melanoma cells with or without Mi-2β expression,[3],no difference in cell survival
Nc1ncnc2c1ncn2[C@@H]1O[C@H](COP(=O)(O)OP(=O)(O)OP(=O)(O)O)[C@@H](O)[C@H]1O [ATP],Km,[4],11.5 µM
